Values of other authors, collected in US20110151497A1, “METABOLOMIC PROFILING OF PROSTATE CANCER” (THE REGENTS OF THE UNIVERSITY OF MICHIGAN, priority 2009, published 2011).

Conditions: humans, isotope labeling

fraction of dietary stearic acid oxidatively desaturated to oleic acid relative to fraction of palmitic acid converted to palmitoleic acid: 2.4 times
SMILES: CCCCCCCCCCCCCCCCCC(=O)O [stearic acid]
